Measurements as given in the NIST ThermoML archive (doi:10.1016/j.jct.2005.03.019).

Assay: xn = mol fraction of the nth substance listed
Conditions: 101 kPa, Liquid, Vibrating tube method

CC1COC(=O)O1 (configuration not stated) [4-methyl-1,3-dioxolan-2-one] + c1ccccc1
Conditions | mass density [kg/m3]
293.15 K, x2 = 0 | 1200.3
293.15 K, x2 = 0.049 | 1184.5
293.15 K, x2 = 0.1189 | 1162
293.15 K, x2 = 0.1749 | 1144.1
293.15 K, x2 = 0.2349 | 1125
293.15 K, x2 = 0.2949 | 1105.9
293.15 K, x2 = 0.3649 | 1083.6
293.15 K, x2 = 0.4248 | 1064.6
293.15 K, x2 = 0.4959 | 1041.9
293.15 K, x2 = 0.5529 | 1023.8
293.15 K, x2 = 0.6249 | 1000.7
293.15 K, x2 = 0.6934 | 978.6
293.15 K, x2 = 0.7539 | 959
293.15 K, x2 = 0.8135 | 939.6
293.15 K, x2 = 0.8622 | 923.6
293.15 K, x2 = 0.9248 | 902.9
303.15 K, x2 = 0 | 1180.6
303.15 K, x2 = 0.0487 | 1165.3
303.15 K, x2 = 0.1273 | 1140.9
303.15 K, x2 = 0.1841 | 1123.3
303.15 K, x2 = 0.2487 | 1103.3
303.15 K, x2 = 0.3127 | 1083.6
303.15 K, x2 = 0.3749 | 1064.4
303.15 K, x2 = 0.4364 | 1045.4
303.15 K, x2 = 0.4821 | 1031.4
303.15 K, x2 = 0.5428 | 1012.6
303.15 K, x2 = 0.6038 | 993.7
303.15 K, x2 = 0.6782 | 970.5
303.15 K, x2 = 0.7465 | 949.1
303.15 K, x2 = 0.8246 | 924.4
303.15 K, x2 = 0.8846 | 905.3
303.15 K, x2 = 0.9381 | 888.1
313.15 K, x2 = 0 | 1161.3
313.15 K, x2 = 0.0537 | 1145
313.15 K, x2 = 0.1295 | 1122
313.15 K, x2 = 0.1649 | 1111.4
313.15 K, x2 = 0.2359 | 1090
313.15 K, x2 = 0.3139 | 1066.7
313.15 K, x2 = 0.3619 | 1052.3
313.15 K, x2 = 0.4143 | 1036.6
313.15 K, x2 = 0.4829 | 1016.1
313.15 K, x2 = 0.5498 | 996.1
313.15 K, x2 = 0.625 | 973.4
313.15 K, x2 = 0.6821 | 956.2
313.15 K, x2 = 0.7492 | 935.8
313.15 K, x2 = 0.8247 | 912.6
313.15 K, x2 = 0.8732 | 897.6
313.15 K, x2 = 0.9348 | 878.4
323.15 K, x2 = 0 | 1142.4
323.15 K, x2 = 0.0598 | 1124.7
323.15 K, x2 = 0.131 | 1103.7
323.15 K, x2 = 0.1856 | 1087.7
323.15 K, x2 = 0.2438 | 1070.7
323.15 K, x2 = 0.3257 | 1046.8
323.15 K, x2 = 0.3987 | 1025.6
323.15 K, x2 = 0.4589 | 1008.1
323.15 K, x2 = 0.5156 | 991.6
323.15 K, x2 = 0.5687 | 976.1
323.15 K, x2 = 0.6145 | 962.7
323.15 K, x2 = 0.6647 | 948
323.15 K, x2 = 0.7365 | 926.8
323.15 K, x2 = 0.7965 | 909
323.15 K, x2 = 0.8567 | 891
323.15 K, x2 = 0.9267 | 869.8
333.15 K, x2 = 0 | 1124
333.15 K, x2 = 0.0592 | 1106.9
333.15 K, x2 = 0.1281 | 1087
333.15 K, x2 = 0.1834 | 1071.2
333.15 K, x2 = 0.2487 | 1052.6
333.15 K, x2 = 0.3279 | 1030.1
333.15 K, x2 = 0.3987 | 1010
333.15 K, x2 = 0.4598 | 992.7
333.15 K, x2 = 0.5139 | 977.4
333.15 K, x2 = 0.5533 | 966.2
333.15 K, x2 = 0.6138 | 949
333.15 K, x2 = 0.6623 | 935.1
333.15 K, x2 = 0.7246 | 917.3
333.15 K, x2 = 0.7749 | 902.7
333.15 K, x2 = 0.8568 | 878.9
333.15 K, x2 = 0.9248 | 858.9
343.15 K, x2 = 0 | 1106
343.15 K, x2 = 0.0638 | 1087.9
343.15 K, x2 = 0.1139 | 1073.8
343.15 K, x2 = 0.1756 | 1056.4
343.15 K, x2 = 0.2439 | 1037.4
343.15 K, x2 = 0.3178 | 1016.9
343.15 K, x2 = 0.3875 | 997.6
343.15 K, x2 = 0.4583 | 978
343.15 K, x2 = 0.5076 | 964.3
343.15 K, x2 = 0.5586 | 950.2
343.15 K, x2 = 0.6246 | 931.9
343.15 K, x2 = 0.6981 | 911.4
343.15 K, x2 = 0.7528 | 896.1
343.15 K, x2 = 0.8137 | 878.9
343.15 K, x2 = 0.8748 | 861.5
343.15 K, x2 = 0.9361 | 843.9
353.15 K, x2 = 0 | 1088.4
353.15 K, x2 = 0.053 | 1073.6
353.15 K, x2 = 0.1329 | 1051.5
353.15 K, x2 = 0.1822 | 1037.9
353.15 K, x2 = 0.2378 | 1022.7
353.15 K, x2 = 0.3327 | 996.9
353.15 K, x2 = 0.381 | 983.8
353.15 K, x2 = 0.4485 | 965.5
353.15 K, x2 = 0.5236 | 945.2
353.15 K, x2 = 0.5728 | 931.9
353.15 K, x2 = 0.6387 | 914
353.15 K, x2 = 0.6831 | 901.9
353.15 K, x2 = 0.7428 | 885.6
353.15 K, x2 = 0.7933 | 871.7
353.15 K, x2 = 0.8642 | 852.1
353.15 K, x2 = 0.9461 | 829.2
